Assay results published in ChEMBL document CHEMBL1156294, “Novel inhibitors of basal glucose transport as potential anticancer agents” (2010).

Assays:
Assay type in all cases: functional
HeLa = test: Inhibition of basal glucose transport in human HeLa cells assessed as inhibition of [3H]2-deoxyglucose uptake at 30 uM after 30 mins by scintillation counting
RKO = test: Inhibition of basal glucose transport in human RKO cells assessed as inhibition of [3H]2-deoxyglucose uptake at 30 uM after 30 mins by scintillation counting
MCF7 = test: Inhibition of basal glucose transport in human MCF7 cells assessed as inhibition of [3H]2-deoxyglucose uptake at 30 uM after 30 mins by scintillation counting
NCI-H1299 = test: Inhibition of basal glucose transport in human H1299 cells assessed as inhibition of [3H]2-deoxyglucose uptake at 30 uM after 30 mins by scintillation counting relative to control
[1] = Cytotoxicity against human H1299 cells at 30 uM after 48 hrs by MTT assay relative to control; conditions: NCI-H1299, 48 h, read-out: GI

Compound	inhibition at 30 µM (HeLa) [%]	inhibition at 30 µM (RKO) [%]	inhibition at 30 µM (MCF7) [%]	inhibition at 30 µM (NCI-H1299) [%]	inhibition of growth at 30 µM [1] [%]
COc1cccc(OC(=O)c2cc(O)c(O)c(O)c2)c1OC(=O)c1cc(O)c(O)c(O)c1	46.3	57.2	33	58.4	36
O=C(Oc1ccc(Cl)cc1OC(=O)c1cc(O)c(O)c(O)c1)c1cc(O)c(O)c(O)c1	–	–	–	84.4	–
O=C(Oc1ccccc1OC(=O)c1ccc(O)cc1)c1ccc(O)cc1	–	–	–	57.5	–
O=C(Oc1cccc(OC(=O)c2cccc(O)c2)c1OC(=O)c1cccc(O)c1)c1cccc(O)c1	–	–	–	99.7	59.3
COc1cccc(OC(=O)c2cccc(O)c2)c1OC(=O)c1cccc(O)c1	–	–	–	79	–
O=C(Oc1ccc(Cl)cc1OC(=O)c1ccccc1O)c1ccccc1O	–	–	–	51.6	26.6
O=C(Oc1ccc(Cl)cc1OC(=O)c1cccc(O)c1)c1cccc(O)c1	–	–	–	93.1	44.5
COc1cccc(OC(=O)c2cc(O)cc(O)c2)c1OC(=O)c1cc(O)cc(O)c1	–	–	–	69.4	–
O=C(Oc1cccc(F)c1OC(=O)c1ccccc1O)c1ccccc1O	–	–	–	51	–
O=C(Oc1cccc(OC(=O)c2ccc(O)cc2)c1OC(=O)c1ccc(O)cc1)c1ccc(O)cc1	–	–	–	88.7	34.8
O=C(Oc1cccc(OC(=O)c2ccc(O)c(O)c2)c1OC(=O)c1ccc(O)c(O)c1)c1ccc(O)c(O)c1	–	–	–	94.7	42.2
COc1cccc(OC(=O)c2ccc(O)c(O)c2)c1OC(=O)c1ccc(O)c(O)c1	–	–	–	0	32.4
O=C(Oc1cccc(F)c1OC(=O)c1cc(O)c(O)c(O)c1)c1cc(O)c(O)c(O)c1	–	–	–	81.1	–
O=C(Oc1ccccc1OC(=O)c1cc(O)c(O)c(O)c1)c1cc(O)c(O)c(O)c1	–	–	–	32.1	–
COc1cc(C(=O)Oc2cccc(OC)c2OC(=O)c2cc(OC)c(OC)c(OC)c2)cc(OC)c1OC	–	–	–	33.3	22.2
COc1cc(C(=O)Oc2ccc(Cl)cc2OC(=O)c2cc(OC)c(OC)c(OC)c2)cc(OC)c1OC	–	–	–	1.7	20.6
COc1cc(C(=O)Oc2cccc(F)c2OC(=O)c2cc(OC)c(OC)c(OC)c2)cc(OC)c1OC	–	–	–	7.9	19.6

Compound	inhibition at 30 µM (HeLa) [%]	inhibition at 30 µM (RKO) [%]	inhibition at 30 µM (MCF7) [%]	inhibition at 30 µM (NCI-H1299) [%]	inhibition of growth at 30 µM [1] [%]
O=C(Oc1cccc(F)c1OC(=O)c1ccc(O)cc1)c1ccc(O)cc1	–	–	–	92.6	35.9
COc1cccc(C(=O)Oc2cccc(OC(=O)c3cccc(OC)c3)c2OC(=O)c2cccc(OC)c2)c1	–	–	–	66.2	–
COc1cccc(C(=O)Oc2cccc(OC)c2OC(=O)c2cccc(OC)c2)c1	–	–	–	32.1	18.3
O=C(Oc1cccc(OC(=O)c2cc(O)cc(O)c2)c1OC(=O)c1cc(O)cc(O)c1)c1cc(O)cc(O)c1	–	–	–	98.7	41
O=C(Oc1ccc(Cl)cc1OC(=O)c1cc(O)cc(O)c1)c1cc(O)cc(O)c1	–	–	–	95.2	38.8
O=C(Oc1cccc(F)c1OC(=O)c1cc(O)cc(O)c1)c1cc(O)cc(O)c1	–	–	–	94	35
O=C(Oc1cccc(OC(=O)c2cc(O)c(O)c(O)c2)c1OC(=O)c1cc(O)c(O)c(O)c1)c1cc(O)c(O)c(O)c1	36	58.1	60.4	86.1	39.9
COc1cc(C(=O)Oc2cccc(OC(=O)c3cc(OC)c(OC)c(OC)c3)c2OC(=O)c2cc(OC)c(OC)c(OC)c2)cc(OC)c1OC	–	–	–	41.1	–
O=C(Oc1ccc(Cl)cc1OC(=O)c1ccc(O)c(O)c1)c1ccc(O)c(O)c1	–	–	–	94.4	45.2
O=C(Oc1cccc(F)c1OC(=O)c1ccc(O)c(O)c1)c1ccc(O)c(O)c1	–	–	–	88.7	41.5
COc1cccc(OC)c1C(=O)Oc1cccc(OC(=O)c2c(OC)cccc2OC)c1OC(=O)c1c(OC)cccc1OC	–	–	–	75.8	–
COc1ccc(C(=O)Oc2cccc(OC(=O)c3ccc(OC)c(OC)c3)c2OC(=O)c2ccc(OC)c(OC)c2)cc1OC	–	–	–	0	10
O=C(Oc1cccc(OC(=O)c2ccccc2O)c1OC(=O)c1ccccc1O)c1ccccc1O	–	–	–	74.7	–
COc1cccc(OC(=O)c2ccccc2O)c1OC(=O)c1ccccc1O	–	–	–	50.5	18
COc1cccc(OC(=O)c2ccc(O)cc2)c1OC(=O)c1ccc(O)cc1	–	–	–	86.5	36.6
O=C(Oc1ccc(Cl)cc1OC(=O)c1ccc(O)cc1)c1ccc(O)cc1	–	–	–	79	–
